Data from US8299070B2, “Indole compounds and pharmaceutical use thereof” (Japan Tobacco Inc., priority 2009, dated 2012).

Biological target: T1, hITK enzyme (FLAG-tagged full-length hITK) (Homo sapiens, UniProt Q08881)
T1 construct: strongly expressing FLAG-tagged full-length hITK in Sf9 cells; FLAG; made in house; host or cells: Sf9 insect cells (ITK); Escherichia coli (GST-SLP76 substrate)
T1 sequence (Q08881 1-620): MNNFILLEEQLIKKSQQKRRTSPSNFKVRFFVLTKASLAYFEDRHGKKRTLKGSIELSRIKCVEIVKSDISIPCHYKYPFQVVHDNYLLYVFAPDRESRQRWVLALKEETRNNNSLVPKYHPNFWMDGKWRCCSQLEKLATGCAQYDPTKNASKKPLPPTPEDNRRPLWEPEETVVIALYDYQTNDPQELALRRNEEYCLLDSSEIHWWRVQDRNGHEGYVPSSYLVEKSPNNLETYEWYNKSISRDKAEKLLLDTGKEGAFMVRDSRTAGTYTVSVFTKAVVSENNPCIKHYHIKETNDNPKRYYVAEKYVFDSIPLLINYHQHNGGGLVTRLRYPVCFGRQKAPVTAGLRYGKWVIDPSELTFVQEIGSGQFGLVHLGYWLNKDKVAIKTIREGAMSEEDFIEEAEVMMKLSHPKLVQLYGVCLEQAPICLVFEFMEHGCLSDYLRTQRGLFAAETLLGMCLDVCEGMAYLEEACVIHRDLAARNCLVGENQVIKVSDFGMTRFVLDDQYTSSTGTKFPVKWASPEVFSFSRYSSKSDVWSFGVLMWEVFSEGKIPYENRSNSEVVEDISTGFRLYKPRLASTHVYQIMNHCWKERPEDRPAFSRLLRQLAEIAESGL
Test: ITK inhibitory activity (HTRF kinase assay, biotinylated GST-SLP76 substrate)
Type: biochemical
Settings: ATP concentration of the substrate solution 6 μmol/L (Examples 380 and 381)
Method in brief: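 Sf9-expressed hITK (50 ng/mL enzyme solution) reacted 10 min at RT in MOPS pH 7.0, 10 mmol/L MgCl2, 1 mmol/L DTT with E. coli SLP76 aa95–175 substrate; substrate solution held 100 µmol/L ATP (6 µmol/L for selected compounds). HTRF 665/620 ratio, blank-corrected; IC50 interpolated between two concentrations bracketing 50% inhibition.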

Structure (SMILES)	IC50 [nM]
CC(NCCOCC(=O)O)C(=O)N(C)c1ccc2cc(-c3n[nH]c4c3CCC(C)(C)C4)[nH]c2c1 (stereo not shown) [Example 380]	2

Same assay, conditions: IC50 calculated from the 2 test compound concentrations sandwiching 50% ITK inhibitory rate

Structure (SMILES)	IC50 [nM]
CC(NCCO)C(=O)N(C)c1ccc2cc(-c3n[nH]c4c3CCC(C)(C)C4)[nH]c2c1 (stereo not shown) [Example 376]	2
COC1CCN(C(C)C(=O)N(C)c2ccc3cc(-c4n[nH]c5c4CCC(C)(C)C5)[nH]c3c2)CC1 (stereo not shown) [Example 113]	9
CC1(C)CCc2c(-c3cc4cc(C(=O)NCc5ccccc5)ccc4[nH]3)n[nH]c2C1 [Example 315]	60
CC(C(=O)N(C)c1ccc2cc(-c3n[nH]c4c3CCC(C)(C)C4)[nH]c2c1)N1CCC[C@H](O)C1 (stereo partly shown) [Example 111]	9
CN(C(=O)CCN1CCCCC1=O)c1ccc2cc(-c3n[nH]c4c3CCC(C)(C)C4)[nH]c2c1 [Example 141]	10
CO[C@H]1CC[C@H](C(=O)N(C)c2ccc3cc(-c4n[nH]c5c4CCC(C)(C)C5)[nH]c3c2)CC1 [Example 82]	7
CN(CC(C)(C)C)C(=O)c1ccc2cc(-c3n[nH]c4c3CCC(C)(C)C4)[nH]c2c1 [Example 15]	9
CN(C(=O)Cn1ccccc1=O)c1ccc2cc(-c3n[nH]c4c3CCC(C)(C)C4)[nH]c2c1 [Example 156]	< 1
CN(C(=O)CN1CCCCC1=O)c1ccc2cc(-c3n[nH]c4c3CCC(C)(C)C4)[nH]c2c1 [Example 105]	2
CCC(=O)N(C)c1ccc2cc(-c3n[nH]c4c3CCC(C)(C)C4)[nH]c2c1 [Example 32]	4
CC1(C)CCc2c(-c3cc4ccc(N5CCC(O)C5=O)cc4[nH]3)n[nH]c2C1 (stereo not shown) [Example 227]	34
CO[C@H]1CN(CC(=O)N(C)c2ccc3cc(-c4n[nH]c5c4CCC(C)(C)C5)[nH]c3c2)C[C@H]1OC [Example 155]	9
CC(C)C(=O)N(C)CC(=O)N(C)c1ccc2cc(-c3n[nH]c4c3CCC(C)(C)C4)[nH]c2c1 [Example 199]	2
CNCC(=O)N(C)c1ccc2cc(-c3n[nH]c4c3CCC(C)(C)C4)[nH]c2c1 [Example 126]	8
CC1CN(C(C)C(=O)N(C)c2ccc3cc(-c4n[nH]c5c4CCC(C)(C)C5)[nH]c3c2)CC(C)O1 (stereo not shown) [Example 120]	5
CCN(C(=O)CN1CCCCCC1=O)c1ccc2cc(-c3n[nH]c4c3CCC(C)(C)C4)[nH]c2c1 [Example 270]	2
COCCN(C(=O)CN1CCOCC1=O)c1ccc2cc(-c3n[nH]c4c3CCC(C)(C)C4)[nH]c2c1 [Example 286]	2
CN(C(=O)COc1ccccc1)c1ccc2cc(-c3n[nH]c4c3CCCC4)[nH]c2c1 [Example 362]	12
CN(CC(=O)N(C)c1ccc2cc(-c3n[nH]c4c3CCC(C)(C)C4)[nH]c2c1)C(=O)CC(C)(C)O [Example 193]	2

Structure (SMILES)	IC50 [nM]
CC1(C)CCc2c(-c3cc4ccc(C(=O)N5CCC(O)CC5)cc4[nH]3)n[nH]c2C1 [Example 16]	25
CCC(C(=O)N(C)c1ccc2cc(-c3n[nH]c4c3CCC(C)(C)C4)[nH]c2c1)N1CCOCC1 (stereo not shown) [Example 129]	5
CN(C)CCCN(C(=O)C1CCCCC1)c1ccc2cc(-c3n[nH]c4c3CCC(C)(C)C4)[nH]c2c1 [Example 218]	< 3
CN(C(=O)CCC1CCCCC1)c1ccc2cc(-c3n[nH]c4c3CCC(C)(C)C4)[nH]c2c1 [Example 93]	48
CN(C(=O)COc1cccnc1)c1ccc2cc(-c3n[nH]c4c3CCC(C)(C)C4)[nH]c2c1 [Example 86]	< 3
CNC(=O)c1ccc2[nH]c(-c3n[nH]c4c3CCC(C)(C)C4)cc2c1 [Example 294]	51
CCC(=O)N(C)c1ccc2cc(-c3n[nH]c4c3CCCC4)[nH]c2c1 [Example 351]	24
CCN(C(C)=O)c1ccc2cc(-c3n[nH]c4c3CCC(C)(C)C4)[nH]c2c1 [Example 2, N-[2-(6,6-dimethyl-4,5,6,7-tetrahydro-1H-indazol-3-yl)-1H-indol-6-yl]-N-ethylacetamide]	5
CC(C(=O)N(C)c1ccc2cc(-c3n[nH]c4c3CCC(C)(C)C4)[nH]c2c1)N1C[C@@H](C)O[C@@H](C)C1 (stereo partly shown) [Example 121]	5
CC1COCCN1CC(=O)N(C)c1ccc2cc(-c3n[nH]c4c3CCC(C)(C)C4)[nH]c2c1 (stereo not shown) [Example 145]	3
CC1(C)CCc2c(-c3cc4cc(C(=O)Nc5nnc(O)s5)ccc4[nH]3)n[nH]c2C1 [Example 324]	140
CC1(C)CCc2c(-c3cc4cc(C(=O)NCc5ccoc5)ccc4[nH]3)n[nH]c2C1 [Example 318]	45
CC(C)C(CO)NC(=O)c1ccc2cc(-c3n[nH]c4c3CCC(C)(C)C4)[nH]c2c1 (stereo not shown) [Example 23]	18
C[C@H](C(=O)N(CCO)c1ccc2cc(-c3n[nH]c4c3CCC(C)(C)C4)[nH]c2c1)N1CCOCC1 [Example 252]	11
CN(C(=O)C1CC(=O)OC1(C)C)c1ccc2cc(-c3n[nH]c4c3CCC(C)(C)C4)[nH]c2c1 (stereo not shown) [Example 106]	7
CN(C(=O)C(O)CO)c1ccc2cc(-c3n[nH]c4c3CCC(C)(C)C4)[nH]c2c1 (stereo not shown) [Example 43]	6
Cn1cncc1CNC(=O)c1ccc2[nH]c(-c3n[nH]c4c3CCC(C)(C)C4)cc2c1 [Example 329]	13
CN(C(=O)CN1CCCCCCC1=O)c1ccc2cc(-c3n[nH]c4c3CCC(C)(C)C4)[nH]c2c1 [Example 187]	2
CC(C(=O)N(C)c1ccc2cc(-c3n[nH]c4c3CCC(C)(C)C4)[nH]c2c1)N1CCC(O)CC1 (stereo not shown) [Example 108]	15

Structure (SMILES)	IC50 [nM]
COC1CCCC(C(=O)N(C)c2ccc3cc(-c4n[nH]c5c4CCC(C)(C)C5)[nH]c3c2)C1 (stereo not shown) [Example 100]	5
CC1(C)CCc2c(-c3cc4ccc(N5CCC(C)(O)C5=O)cc4[nH]3)n[nH]c2C1 (stereo not shown) [Example 244]	23
CCC(OC)C(=O)N(C)c1ccc2cc(-c3n[nH]c4c3CCC(C)(C)C4)[nH]c2c1 (stereo not shown) [Example 50]	4
CC(C(=O)N(C)c1ccc2cc(-c3n[nH]c4c3CCC(C)(C)C4)[nH]c2c1)N1CCOCC1 (stereo not shown) [Example 104]	4
C[C@H]1COCC(=O)N1CC(=O)N(C)c1ccc2cc(-c3n[nH]c4c3CCC(C)(C)C4)[nH]c2c1 [Example 172]	2
CC1(C)CCc2c(-c3cc4cc(C(=O)NC(C)(C)C(=O)O)ccc4[nH]3)n[nH]c2C1 [Example 326]	42
CON(C)C(=O)c1ccc2[nH]c(-c3n[nH]c4c3CCC(C)(C)C4)cc2c1 [Example 321]	48
CO[C@@H]1CCCN(CC(=O)N(C)c2ccc3cc(-c4n[nH]c5c4CCC(C)(C)C5)[nH]c3c2)C1 [Example 115]	4
CN(C(=O)C(C)(C)N1CCOCC1)c1ccc2cc(-c3n[nH]c4c3CCC(C)(C)C4)[nH]c2c1 [Example 161]	22
CN(C(=O)CN1CCC[C@@H](O)C1)c1ccc2cc(-c3n[nH]c4c3CCC(C)(C)C4)[nH]c2c1 [Example 110]	7
COC(CO)C(=O)N(C)c1ccc2cc(-c3n[nH]c4c3CCC(C)(C)C4)[nH]c2c1 (stereo not shown) [Example 48]	6
CC1COCC(=O)N1CC(=O)N(C)c1ccc2cc(-c3n[nH]c4c3CCC(C)(C)C4)[nH]c2c1 (stereo not shown) [Example 130]	2
CN(C(=O)c1ccccc1)c1ccc2[nH]c(-c3n[nH]c4c3CCC(C)(C)C4)cc2c1 [Example 339]	842
CC(NC(=O)c1ccc2[nH]c(-c3n[nH]c4c3CCC(C)(C)C4)cc2c1)C(C)(C)C (stereo not shown) [Example 299]	74
COCCN(C(=O)CN1C(=O)COC[C@H]1C)c1ccc2cc(-c3n[nH]c4c3CCC(C)(C)C4)[nH]c2c1 [Example 262]	3
COCCN(C(=O)CN1CCCCCC1=O)c1ccc2cc(-c3n[nH]c4c3CCC(C)(C)C4)[nH]c2c1 [Example 281]	1
COCCN(C(=O)CN1CCOC(C)C1=O)c1ccc2cc(-c3n[nH]c4c3CCC(C)(C)C4)[nH]c2c1 (stereo not shown) [Example 265]	2
CO[C@H]1CCCN(CC(=O)N(C)c2ccc3cc(-c4n[nH]c5c4CCC(C)(C)C5)[nH]c3c2)C1 [Example 114]	5
CN(C)CCN(C(=O)C1CCCO1)c1ccc2cc(-c3n[nH]c4c3CCC(C)(C)C4)[nH]c2c1 (stereo not shown) [Example 220]	< 3
